In PubChem BioAssay AID248 (DTP/NCI, 2004):
“And” between values parts separate entries of the source, which are not always exact repeats. Equal values may be shown once. Toxic doses and inconclusive results are not listed. Rule as the data show it: active = T/C of 150% or more; inactive = T/C below 125%.

System: L1210 leukemia ip in BDF1 mice, survival T/C
Assay: NCI In Vivo Anticancer Drug Screen. Data for tumor model L1210 Leukemia (intraperitoneal) in B6D2F1 (BDF1) mice
Settings: endpoint: mean survival time, higher = longer survival
Method in brief: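 Tumor was transplanted into mice, which were then dosed with test compound or vehicle alone. Survival was recorded for each group, and the treated figure was expressed relative to the control figure.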

[1] = dose: 100.0 mg/kg/injection, schedule: Q04DX003 (ip), vehicle: saline
[2] = dose: 100.0 mg/kg/injection, schedule: Q01DX009 (ip), vehicle: Klucel (hydroxypropylcellulose) (HPC)
[3] = dose: 100.0 mg/kg/injection, schedule: Q04DX003 (ip), vehicle: saline with Tween-80
[4] = dose: 200.0 mg/kg/injection, schedule: Q01DX009 (ip), vehicle: Klucel (hydroxypropylcellulose) (HPC)
[5] = dose: 200.0 mg/kg/injection, schedule: Q04DX003 (ip), vehicle: saline with Tween-80
[6] = dose: 400.0 mg/kg/injection, schedule: Q04DX003 (ip), vehicle: saline with Tween-80
[7] = dose: 100.0 mg/kg/injection, schedule: Q04DX002 (ip), vehicle: saline
[8] = dose: 200.0 mg/kg/injection, schedule: Q04DX002 (ip), vehicle: saline
[9] = dose: 400.0 mg/kg/injection, schedule: Q04DX002 (ip), vehicle: saline

Measured: T/C

CC(N)Cc1ccccc1 (configuration not stated)
inactive: dose: 1.17 mg/kg/injection, schedule: Q04DX003 (ip), vehicle: saline 98 % of control | dose: 2.34 mg/kg/injection, schedule: Q04DX003 (ip), vehicle: saline 98 % of control | dose: 2.5 mg/kg/injection, schedule: Q04DX003 (ip), vehicle: saline 100 % of control | dose: 4.68 mg/kg/injection, schedule: Q01DX009 (ip), vehicle: saline 94 % of control | dose: 4.68 mg/kg/injection, schedule: Q04DX003 (ip), vehicle: saline 93 % of control | dose: 5.0 mg/kg/injection, schedule: Q04DX003 (ip), vehicle: saline 96 % of control | dose: 6.25 mg/kg/injection, schedule: Q01DX009 (ip), vehicle: saline 103 % of control | dose: 9.37 mg/kg/injection, schedule: Q01DX009 (ip), vehicle: saline 93 % of control | dose: 9.37 mg/kg/injection, schedule: Q04DX003 (ip), vehicle: saline 106 % of control | dose: 10.0 mg/kg/injection, schedule: Q04DX003 (ip), vehicle: saline 97 % of control | dose: 12.5 mg/kg/injection, schedule: Q01DX001 (ip), vehicle: saline 96 % of control | dose: 12.5 mg/kg/injection, schedule: Q01DX009 (ip), vehicle: saline 97 % of control | dose: 18.74 mg/kg/injection, schedule: Q04DX003 (ip), vehicle: saline 107 % of control | dose: 18.75 mg/kg/injection, schedule: Q01DX009 (ip), vehicle: saline 87 % of control | dose: 18.75 mg/kg/injection, schedule: Q04DX003 (ip), vehicle: saline 97 % of control | dose: 20.0 mg/kg/injection, schedule: Q04DX003 (ip), vehicle: saline 97 % of control | dose: 25.0 mg/kg/injection, schedule: Q01DX001 (ip), vehicle: saline 101 % of control | dose: 25.0 mg/kg/injection, schedule: Q01DX009 (ip), vehicle: saline 100 % of control | dose: 25.0 mg/kg/injection, schedule: Q04DX003 (ip), vehicle: saline 100 % of control | dose: 37.48 mg/kg/injection, schedule: Q03HX024 (ip), vehicle: saline 96 % of control | dose: 37.5 mg/kg/injection, schedule: Q01DX009 (ip), vehicle: saline 103 % of control | dose: 37.5 mg/kg/injection, schedule: Q04DX003 (ip), vehicle: saline 108 % of control | dose: 40.0 mg/kg/injection, schedule: Q04DX003 (ip), vehicle: saline 103 % of control | dose: 50.0 mg/kg/injection, schedule: Q01DX001 (ip), vehicle: saline 109 % of control | dose: 50.0 mg/kg/injection, schedule: Q01DX009 (ip), vehicle: saline 101 % of control | dose: 50.0 mg/kg/injection, schedule: Q04DX003 (ip), vehicle: saline 100 % of control | dose: 75.0 mg/kg/injection, schedule: Q04DX003 (ip), vehicle: saline 100 % of control | dose: 100.0 mg/kg/injection, schedule: Q01DX001 (ip), vehicle: saline 102 % of control | [1] 105 % of control

O=c1c2ccccc2[nH]c(=S)n1-c1ccc(Cl)cc1
inactive: [2] 100 % of control | [3] 100 % of control | [4] 111 % of control | [5] 100 % of control | dose: 400.0 mg/kg/injection, schedule: Q01DX009 (ip), vehicle: Klucel (hydroxypropylcellulose) (HPC) 97 % of control | [6] 97 % of control

O=C(O)CC(Br)C(=O)c1ccccc1 (configuration not stated)
inactive: dose: 12.5 mg/kg/injection, schedule: Q01DX009 (ip), vehicle: saline with Tween-80 91 % of control | dose: 12.5 mg/kg/injection, schedule: Q04DX003 (ip), vehicle: saline with Tween-80 96 % of control | dose: 25.0 mg/kg/injection, schedule: Q01DX009 (ip), vehicle: saline with Tween-80 95 % of control | dose: 25.0 mg/kg/injection, schedule: Q04DX003 (ip), vehicle: saline with Tween-80 96 % of control | dose: 50.0 mg/kg/injection, schedule: Q01DX009 (ip), vehicle: saline with Tween-80 95 % of control | dose: 50.0 mg/kg/injection, schedule: Q04DX003 (ip), vehicle: saline with Tween-80 104 % of control

C=CCS(=O)(=O)c1ccccc1
inactive: dose: 100.0 mg/kg/injection, schedule: Q01DX009 (ip), vehicle: saline 106 % of control | dose: 200.0 mg/kg/injection, schedule: Q01DX009 (ip), vehicle: saline 98 % of control | dose: 400.0 mg/kg/injection, schedule: Q01DX009 (ip), vehicle: saline 101 % of control

CC12CCC3C(C1)C(C(=O)O2)C(=O)OC3(C)C (configuration not stated)
inactive: dose: 75.0 mg/kg/injection, schedule: Q01DX009 (ip), vehicle: Klucel (hydroxypropylcellulose) (HPC) 99 % of control | dose: 150.0 mg/kg/injection, schedule: Q01DX009 (ip), vehicle: Klucel (hydroxypropylcellulose) (HPC) 101 % of control

CC(C)=NNC(=O)NO
inactive: dose: 75.0 mg/kg/injection, schedule: Q01DX001 (ip), vehicle: saline 102 % of control

CCCCCCCCC(=O)N(CCC)CCC
inactive: dose: 100.0 mg/kg/injection, schedule: Q01DX009 (ip), vehicle: carboxymethylcellulose (CMC) 94 % of control and 97 % of control | dose: 100.0 mg/kg/injection, schedule: Q04DX002 (ip), vehicle: carboxymethylcellulose (CMC) 96 % of control | dose: 200.0 mg/kg/injection, schedule: Q01DX009 (ip), vehicle: carboxymethylcellulose (CMC) 93 % of control and 96 % of control | dose: 200.0 mg/kg/injection, schedule: Q04DX002 (ip), vehicle: carboxymethylcellulose (CMC) 96 % of control | dose: 400.0 mg/kg/injection, schedule: Q01DX009 (ip), vehicle: carboxymethylcellulose (CMC) 94 % of control and 90 % of control | dose: 400.0 mg/kg/injection, schedule: Q04DX002 (ip), vehicle: carboxymethylcellulose (CMC) 96 % of control

O=C(O)C1CCC1(C(=O)O)C(=O)O (configuration not stated)
inactive: [7] 94 % of control | [8] 90 % of control | [9] 94 % of control

COc1ccc(OC(=O)Nc2ccccc2[N+](=O)[O-])cc1
inactive: [3] 106 % of control | [5] 94 % of control | [6] 95 % of control

Br/C(=C(/Br)c1ccccc1)c1ccccc1
inactive: dose: 50.0 mg/kg/injection, schedule: Q01DX009 (ip), vehicle: Klucel (hydroxypropylcellulose) (HPC) 105 % of control | [2] 91 % of control | [4] 102 % of control

CC(C)CC(NC(=O)C(C)NC(=O)OCc1ccccc1)C(=O)OCc1ccccc1 (configuration not stated)
inactive: [3] 92 % of control | [5] 92 % of control | [6] 91 % of control

N#CCCOCCOCCC#N
inactive: [1] 109 % of control | dose: 200.0 mg/kg/injection, schedule: Q04DX003 (ip), vehicle: saline 101 % of control | dose: 400.0 mg/kg/injection, schedule: Q04DX003 (ip), vehicle: saline 95 % of control

O=[N+]([O-])c1ccc2c3c(ccc(Br)c13)CC2
inactive: dose: 100.0 mg/kg/injection, schedule: Q01DX009 (ip), vehicle: saline sonified 103 % of control | dose: 100.0 mg/kg/injection, schedule: Q04DX003 (ip), vehicle: Klucel (hydroxypropylcellulose) (HPC) 106 % of control | dose: 200.0 mg/kg/injection, schedule: Q01DX009 (ip), vehicle: saline sonified 103 % of control | dose: 200.0 mg/kg/injection, schedule: Q04DX003 (ip), vehicle: Klucel (hydroxypropylcellulose) (HPC) 98 % of control | dose: 400.0 mg/kg/injection, schedule: Q01DX009 (ip), vehicle: saline sonified 100 % of control | dose: 400.0 mg/kg/injection, schedule: Q04DX003 (ip), vehicle: Klucel (hydroxypropylcellulose) (HPC) 92 % of control

CCC#CC(=O)OCCCCC
inactive: [7] 105 % of control | [8] 102 % of control | [9] 108 % of control
